Reference: patent US20210401863A1, “TREATMENT AND PREVENTION OF NEISSERIA GONORRHOEAE INFECTION USING CMP-ACTIVATED NONULOSONATE ANALOG COMPOUNDS” (NATIONAL RESEARCH COUNCIL OF CANADA, priority 2015, published 2021)
Read-outs that look alike come from different tables or passages of the source.

Key:
[1] = test system: N. gonorrhoeae F62 ΔlgtD; assay type: cell-based, Neisseria gonorrhoeae
Method: Generally, bacteria (F62 ΔlgtD) grown overnight on chocolate agar plates were suspended in gonococcal liquid media supplemented with IsoVitaleX [29] that contained specified concentrations of the CMP-nonulosonate. Bacteria were then incubated at 37° C. for the period specified in each experiment.
Serum bactericidal assays were performed as follows, similar to methods outlined in [32,33] and in U.S. Pat. No. 9,765,106. Bacteria were harvested from an overnight culture on chocolate agar plates and ˜10^5 CFU of Ng were grown in liquid media containing the concentrations of CMP-NuIO as specified for each experiment. Bacteria were diluted in Morse A and ˜2000 CFU of Ng F62 ΔlgtD were incubated with NHS (concentration specified for each experiment). The final reaction volumes were maintained at 150 μL. Aliquots of 25 μL of reaction mixtures were plated onto chocolate agar in duplicate at the beginning of the assay (t0) and again after incubation at 37° C. for 30 minutes (t30). Survival was calculated as the number of viable colonies at t30 relative to t0.
Addition of a terminal Neu5Ac residue to the LNnT LOS of N. gonorrhoeae that occurs in vivo or following the addition of CMP-Neu5Ac to growth media results in resistance to complement-dependent killing. We next determined the effects of LNnT incorporation of KDN on the ability of N. gonorrhoeae F62 ΔlgtD to resist complement-dependent killing by normal human sera at concentrations of 3.3% or 10%. Bacteria were grown either in media alone, or media supplemented with 20 μg/mL of CMP-Neu5Ac or CMP-KDN. In addition, CMP-NulO competition experiments were also performed with CMP-Neu5Ac, CMP-Leg5Ac7Ac and CMP-KDN at CMP-NulO concentrations of either 20 μg/mL or 2 μg/mL as indicated, where the second CMP-NulO was added 15 minutes after the first (Table 1 below). To note, these CMP-NulO competition experiments are a method to examine the ability of select CMP-NulOs to counter the enhanced serum resistance due to CMP-Neu5Ac addition, providing information on their therapeutic potential (as any potential therapeutic will be required to compete with CMP-Neu5Ac in vivo).

[2] = test system: N. gonorrhoeae H041; experiment: BALB/c mouse vaginal colonization model; assay type: in vivo; settings: 10 μg intravaginally daily; Premarin treated BALB/c mice
Method: FIG. 2: Female BALB/c mice 5-6 weeks of age (Jackson Laboratories) in the diestrus phase of the estrous cycle were started on treatment (that day) with 0.5 mg of Premarin (Pfizer) given subcutaneously on each of three days; −2, 0 and +2 days (before, the day of and after inoculation) to prolong the estrus phase of the cycle and promote susceptibility to N. gonorrhoeae infection. Antibiotics (vancomycin, colistin, neomycin, trimethoprim and streptomycin) that were ineffective against N. gonorrhoeae were also used to reduce competitive microflora. Mice (n=40) were then infected with 10^6 CFU of strain H041. Three groups of mice (n=10/group) were treated with 10 μg intravaginally daily (first dose was administered 30 minutes before the introduction of bacteria) with one of the following CMP-NulOs in normal saline: CMP-Leg5Ac7Ac, CMP-Neu5Ac9Az or CMP-KDN. A fourth group (n=10) was given saline (vehicle control). Vaginal swabs were obtained daily from each animal, serially diluted and plated on chocolate agar containing vancomycin, colistin, neomycin, trimethoprim and streptomycin (VCNTS) to quantify bacterial loads. A. Median time to clearance was estimated using Kaplan-Meier survival curves; the times to clearance were compared between groups using a log-rank test. P<0.0001 for the control versus each of the treatment groups. Time to clearance between each of the treatment groups was similar (P>0.05). B. The mean area under the curve (log10 CFU vs. time) was computed for each mouse to estimate the bacterial burden over time (cumulative infection); the means under the curves were compared between groups using the Kruskal-Wallis nonparametric rank sum test because distributions were skewed or kurtotic. Groups were compared using Dunn's multiple comparison test. ****, P<0.0001; **, P<0.01; *, P<0.05. The differences among the groups that received CMP-NulOs were not significant.
The mouse model experiments and statistical analysis were conducted as described in the art and in U.S. Pat. No. 9,765,106. […]

[3] = test system: N. gonorrhoeae F62 ΔlgtD; settings: from U.S. patent application Ser. No. 14/627,396; cited from earlier work
[4] = molecular target: T1, gonococcal LOS sialyltransferase (Lst) (Neisseria gonorrhoeae, UniProt P72074); settings: from U.S. patent application Ser. No. 14/627,396; cited from earlier work
T1 construct: CMP-KDN served as a substrate for gonococcal Lst in the context of live bacteria; endogenous in cells; host or cells: N. gonorrhoeae F62 ΔlgtD (live bacteria)
T1 sequence (P72074 whole entry): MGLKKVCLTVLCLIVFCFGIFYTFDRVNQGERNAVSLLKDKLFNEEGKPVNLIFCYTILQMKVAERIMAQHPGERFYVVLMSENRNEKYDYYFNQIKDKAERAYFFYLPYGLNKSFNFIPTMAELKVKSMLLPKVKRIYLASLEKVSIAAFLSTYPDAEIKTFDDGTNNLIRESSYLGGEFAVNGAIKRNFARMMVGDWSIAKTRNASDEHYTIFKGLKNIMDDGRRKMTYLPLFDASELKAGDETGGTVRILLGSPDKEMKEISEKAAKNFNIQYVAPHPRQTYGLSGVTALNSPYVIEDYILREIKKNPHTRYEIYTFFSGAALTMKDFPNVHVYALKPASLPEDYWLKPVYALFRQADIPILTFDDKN

[5] = test system: purified human FH; settings: from U.S. Pat. No. 9,765,106 / Ser. No. 14/627,396; cited from earlier work
[6] = molecular target: T1, gonococcal LOS sialyltransferase (Lst); experiment: mAb 3F11 binding by flow cytometry (incorporation of NulO on LNnT LOS by Lst); assay type: cell-based, N. gonorrhoeae F62 ΔlgtD; settings: F62 ΔlgtD grown in media with 20 μg/mL CMP-NulO
Method: FIG. 1: CMP-KDN serves as a substrate for gonococcal LOS and incorporation of KDN on gonococcal lacto-N-neotetraose LOS enhances factor H (FH) binding. A. Incorporation of KDN by gonococci. Gonococcal strain F62 ΔlgtD (expresses lacto-N-neotetraose (LNnT) from Hepl) was grown in media containing CMP-KDN (20 μg/mL) and binding of mAb 3F11 was measured by flow cytometry. mAb 3F11 binds only to […] LNnT; substitution of the terminal Gal of LNnT, for example with a NulO, will decrease mAb 3F11 binding. Approximately 5×10^7 bacteria were incubated with mAb 3F11 tissue culture supernatants for 15 minutes at 37° C. Binding of mAb 3F11 was disclosed with anti-mouse IgM FITC (Sigma; dilution of 1:100). Bacteria grown in CMP-Neu5Ac or in media alone were used as positive and negative controls for sialylation, respectively. A representative histogram is shown in the upper panel. […] B. Factor H (FH) binding to gonococci grown in CMP-KDN. Approximately 5×10^7 bacteria grown in media alone (no sialic acid), media plus CMP-Neu5Ac (20 μg/mL; positive control for FH binding) or in media containing CMP-KDN (20 μg/mL) were incubated with purified human FH (20 μg/mL) in HBSS** for 15 minutes at 37° C. and bound FH was detected with affinity isolated goat anti-human FH followed by anti-goat IgG FITC (Sigma; 1:100 dilution). A representative histogram is shown in the upper panel.
FIG. 3: CMP-KDN7N3 serves as a substrate for gonococcal Lst resulting in incorporation of KDN7N3 on gonococcal lacto-N-neotetraose (LNnT) LOS—Incorporation of KDN7N3 by gonococci. Gonococcal strain F62ΔlgtD (expresses lacto-N-neotetraose (LNnT) from Hepl) was grown in media containing CMP-KDN7N3 (20 μg/mL) and binding of mAb 3F11 was measured by flow cytometry. mAb 3F11 binds only to […] LNnT; substitution of the terminal Gal of LNnT, for example with a NulO, will decrease mAb 3F11 binding. Approximately 5×10^7 bacteria were incubated with mAb 3F11 tissue culture supernatants for 15 minutes at 37° C. Binding of mAb 3F11 was disclosed with anti-mouse IgM FITC (Sigma; dilution of 1:100). […]

[7] = test system: purified human FH; experiment: Factor H (FH) binding to gonococci by flow cytometry; assay type: cell-based; settings: F62 ΔlgtD grown with 20 μg/mL CMP-NulO, human FH 20 μg/mL
Method: FIG. 1: CMP-KDN serves as a substrate for gonococcal LOS and incorporation of KDN on gonococcal lacto-N-neotetraose LOS enhances factor H (FH) binding. A. Incorporation of KDN by gonococci. Gonococcal strain F62 ΔlgtD (expresses lacto-N-neotetraose (LNnT) from Hepl) was grown in media containing CMP-KDN (20 μg/mL) and binding of mAb 3F11 was measured by flow cytometry. mAb 3F11 binds only to […] LNnT; substitution of the terminal Gal of LNnT, for example with a NulO, will decrease mAb 3F11 binding. Approximately 5×10^7 bacteria were incubated with mAb 3F11 tissue culture supernatants for 15 minutes at 37° C. Binding of mAb 3F11 was disclosed with anti-mouse IgM FITC (Sigma; dilution of 1:100). Bacteria grown in CMP-Neu5Ac or in media alone were used as positive and negative controls for sialylation, respectively. A representative histogram is shown in the upper panel. […] B. Factor H (FH) binding to gonococci grown in CMP-KDN. Approximately 5×10^7 bacteria grown in media alone (no sialic acid), media plus CMP-Neu5Ac (20 μg/mL; positive control for FH binding) or in media containing CMP-KDN (20 μg/mL) were incubated with purified human FH (20 μg/mL) in HBSS** for 15 minutes at 37° C. and bound FH was detected with affinity isolated goat anti-human FH followed by anti-goat IgG FITC (Sigma; 1:100 dilution). A representative histogram is shown in the upper panel. […]

[8] = CMP-Neu5Ac (20 μg/mL) first, labelled CMP-NulO (20 μg/mL) added 15 minutes later
[9] = labelled CMP-NulO (20 μg/mL) first, CMP-Neu5Ac (2 μg/mL) added 15 minutes later
[10] = labelled CMP-NulO (20 μg/mL) first, CMP-Neu5Ac (20 μg/mL) added 15 minutes later

Row | SMILES | % survival in 3.3% serum [1, 8] | % survival in 10% serum [1, 8] | countering of serum resistance mediated by CMP-Neu5Ac (competition, in words) ([1]; CMP-NulO competition, second CMP-NulO 15 minutes after the first, 3.3% and 10% serum) | % survival in 3.3% serum [1, 9] | % survival in 10% serum [1, 9] | % survival in 3.3% serum [1, 10] | % survival in 10% serum [1, 10] | attenuation of N. gonorrhoeae H041 infection [2] | serum resistance / serum-mediated killing (earlier results) [3] | substrate for gonococcal LOS sialyltransferase (Lst) (earlier results) [4] | fH binding to bacteria (earlier results) [5] | % survival in 10% serum ([1]; Table 1, CMP-NulO 20 μg/mL alone) | % survival in 3.3% serum ([1]; Table 5, CMP-NulO 20 μg/mL) | % survival in 10% serum ([1]; Table 5, CMP-NulO 20 μg/mL) | binding of mAb 3F11 (use as substrate by gonococcal Lst) [6] | fH binding to bacteria [7]
1 | CC(=O)N[C@@H]([C@@H]1O[C@](OP(=O)(O)OC[C@H]2O[C@@H](n3ccc(N)nc3=O)[C@H](O)[C@@H]2O)(C(=O)O)C[C@H](O)[C@H]1NC(C)=O)[C@@H](C)O [CMP-Leg5Ac7Ac] | 9% | 5% | blocked serum resistance mediated by CMP-Neu5Ac at both 3.3% and 10% serum concentrations irrespective of the order of addition | 6% | 6% | 7% | 3% | significantly attenuated | enhanced serum-mediated killing | can serve as substrates for gonococcal LOS sialyltransferase (Lst) | not enhance fH binding above levels seen with an unsialylated F62 ΔlgtD control | – | – | – | – | –
2 | CC(=O)N[C@H]1[C@H]([C@H](O)[C@H](O)CO)O[C@](OP(=O)(O)OC[C@H]2O[C@@H](n3ccc(N)nc3=O)[C@H](O)[C@@H]2O)(C(=O)O)C[C@@H]1O [CMP-Neu5Ac] | – | – | – | – | – | – | – | – | – | – | – | 115% | 133.03% | 129.02% | decreased binding of mAb 3F11 similarly | Maximal fH binding
